Legend:
[1] = target: [MCL-1]-[compound of formula (I)]—[CRBN/DDB1] (Homo sapiens, UniProt Q07820+Q96SW2); experiment: HTRF ternary complex formation assay; assay type: binding; details: hMcl-1 and CRBN, 180 min at 25° C.; read-out: HTRF ternary complex Average pEC50 by molecule (converted)
Method: The effect of the bifunctional compounds of the invention on the formation of a ternary complex composed of [MCL-1]-[compound of formula (I)]—[CRBN/DDB1] was investigated with HTRF ternary complex assay.
Mix of protein solution was prepared: • 48 nM hMcl-1 and 105.6 nM CRBN were prepared in PPI Europium detection buffer with 2 mM DTT. • Acceptor and donor stock solutions were diluted 100 times in PPI Europium detection buffer. Equal volumes of both reagents were mixed. Finally giving 3 nM of Streptavidin-Eu cryptate ([…]) and 6.67 nM of Anti-6×his-d2 ([…]).
5 μl of protein mix was dispensed to all wells. The tested compounds in dose-response were dispensed onto a white 384-well low volume plate (Greiner, 784075). DMSO was backfilled to all wells, resulting in a final DMSO content of 0.5%. Wells containing only DMSO served as a background. Next, 5 μl of solution with donor and acceptor was added to the wells.
The plate was sealed with transparent film and shaken using a VibroTurbulator for 60 sec at level 3. The plate was then spun down shortly (10 s, 1000 rcf) and incubated at 25° C. for 180 min.
The read-out was performed with plate reader (Pherastar, BMG Labtech) in time resolved fluorescence mode. Filterset: TR 337 665 620.
The results were analyzed as follows: • 1) an average of fluorescence for background signal was calculated and used as a negative control; • 2) raw fluorescence values for tested compounds were normalized against negative controls; • 3) bell shape curve was fitted to a gaussian distribution using a non-linear least squares Gauss-Newton algorithm; • 4) EC50 and pEC50 values were determined.

[2] = test system: MV4-11 cells; experiment: Cell viability assay (CellTiter-Glo), MV4-11; assay type: cell-based; details: Homo sapiens, MV4-11, 24 hours, 1% FBS, read-out: Average pCC50 by molecule MV4-11 (converted)
Description: (§1) The effect of various compounds of the invention on the viability of MV4-11 and ARH-77 cell lines was investigated, using the CTG protocol described below.
(§2) MV4-11 cell lines are derived from acute myeloid leukaemia and it is described in the literature as a MCL-1 dependent cell line, as opposed to lymphoblast-like ARH-77 cell line, which is described as independent of MCL-1 (Tron A E et al. Nat Commun. 2018; 9: 5341; Caenepeel S et al. Cancer Discov. 2018 December; 8(12): 1582-1597).
(§3) Cells (MV4-11 or ARH-77) were seeded on […] in a growth medium with 1% FBS. Next, compound stocks were pre-diluted in DMSO and added directly to the cell culture media (final DMSO concentration: 0.5%). Compound concentrations used in this assay: 1/3 dilutions starting at 30 μM (9 to 12 points). After 24 hours of incubation, cell viability was evaluated using CellTiter-Glo Luminescent Cell Viability Assay (Promega, cat #G7572). The luminescence signal was measured using a CLARIOstar Plus Multi-Mode Microplate Reader (574-590 nm).
(§4) Results were normalized to DMSO control. Collected data were analyzed using GraphPad Prism to calculate pCC50 values.

[3] = Cell viability assay (CellTiter-Glo), ARH-77; assay type: cell-based; details: human, ARH-77 cells (lymphoblast-like, MCL-1 independent), ARH-77, 24 hours, 1% FBS, read-out: Average pCC50 by molecule ARH-77 (converted)
Description: as §1, §2, §3, §4

Chain of [MCL-1]-[compound of formula (I)]—[CRBN/DDB1] (Q07820 whole entry): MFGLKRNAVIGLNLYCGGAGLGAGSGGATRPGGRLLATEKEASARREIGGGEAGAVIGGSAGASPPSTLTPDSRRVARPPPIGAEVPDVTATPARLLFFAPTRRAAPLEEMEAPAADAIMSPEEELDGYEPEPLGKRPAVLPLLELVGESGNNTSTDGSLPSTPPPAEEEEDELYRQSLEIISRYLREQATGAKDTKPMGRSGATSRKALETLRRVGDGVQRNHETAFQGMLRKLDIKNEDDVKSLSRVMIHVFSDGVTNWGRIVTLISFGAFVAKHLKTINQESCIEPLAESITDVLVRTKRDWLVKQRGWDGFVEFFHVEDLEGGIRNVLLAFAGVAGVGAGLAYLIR
Chain of [MCL-1]-[compound of formula (I)]—[CRBN/DDB1] (Q96SW2 whole entry): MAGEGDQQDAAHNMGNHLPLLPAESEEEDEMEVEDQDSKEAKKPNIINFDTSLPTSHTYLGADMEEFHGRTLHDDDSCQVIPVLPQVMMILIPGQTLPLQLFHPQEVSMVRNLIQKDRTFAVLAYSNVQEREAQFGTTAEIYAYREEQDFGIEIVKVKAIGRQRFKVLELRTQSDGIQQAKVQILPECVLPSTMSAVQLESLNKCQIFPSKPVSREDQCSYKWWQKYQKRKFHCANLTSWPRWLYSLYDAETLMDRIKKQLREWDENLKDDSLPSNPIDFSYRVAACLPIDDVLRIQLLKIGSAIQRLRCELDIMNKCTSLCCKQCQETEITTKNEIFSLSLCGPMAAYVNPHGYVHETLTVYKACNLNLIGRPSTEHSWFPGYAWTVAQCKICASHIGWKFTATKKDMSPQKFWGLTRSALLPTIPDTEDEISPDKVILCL
Chain of [MCL-1]-[compound of formula (I)]—[CRBN/DDB1] (Q16531 whole entry partner): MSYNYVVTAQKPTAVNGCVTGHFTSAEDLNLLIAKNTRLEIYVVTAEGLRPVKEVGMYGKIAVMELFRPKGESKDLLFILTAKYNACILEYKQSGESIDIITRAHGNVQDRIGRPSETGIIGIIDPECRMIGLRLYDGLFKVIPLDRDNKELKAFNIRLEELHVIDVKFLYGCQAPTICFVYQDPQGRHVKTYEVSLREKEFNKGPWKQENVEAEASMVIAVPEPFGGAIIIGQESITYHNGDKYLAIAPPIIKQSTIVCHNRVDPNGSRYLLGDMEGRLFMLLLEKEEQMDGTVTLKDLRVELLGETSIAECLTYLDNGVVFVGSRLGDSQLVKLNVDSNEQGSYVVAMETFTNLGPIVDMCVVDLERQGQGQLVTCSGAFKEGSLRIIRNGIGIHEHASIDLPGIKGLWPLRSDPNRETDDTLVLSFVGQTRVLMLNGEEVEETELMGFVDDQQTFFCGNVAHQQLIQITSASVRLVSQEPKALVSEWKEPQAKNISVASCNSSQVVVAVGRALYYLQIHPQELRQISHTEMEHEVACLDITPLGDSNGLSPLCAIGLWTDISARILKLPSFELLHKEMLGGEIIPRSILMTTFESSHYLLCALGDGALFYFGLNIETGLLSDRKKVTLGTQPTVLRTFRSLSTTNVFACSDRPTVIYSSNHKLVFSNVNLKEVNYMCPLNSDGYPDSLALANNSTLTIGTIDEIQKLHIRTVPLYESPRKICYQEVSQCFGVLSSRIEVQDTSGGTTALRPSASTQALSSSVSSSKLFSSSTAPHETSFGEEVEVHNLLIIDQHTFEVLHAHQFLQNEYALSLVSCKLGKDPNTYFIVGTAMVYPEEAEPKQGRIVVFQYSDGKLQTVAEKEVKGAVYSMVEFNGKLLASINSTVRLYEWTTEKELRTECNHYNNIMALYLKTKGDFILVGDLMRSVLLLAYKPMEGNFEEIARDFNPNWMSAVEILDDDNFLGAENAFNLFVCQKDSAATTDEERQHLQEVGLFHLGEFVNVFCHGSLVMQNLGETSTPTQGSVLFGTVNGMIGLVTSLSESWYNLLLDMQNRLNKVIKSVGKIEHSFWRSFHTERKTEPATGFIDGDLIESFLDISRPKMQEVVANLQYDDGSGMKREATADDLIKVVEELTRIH

SMILES	EC50 [1] [nM]	CC50 [2] [nM]	CC50 at 24 h [3] [nM]
Cc1nn(C)c(C)c1-c1c(Cl)ccc2c(CCCOc3cccc4cc(F)ccc34)c(C(=O)O)n(CCN3C(C)CN(C(=O)COc4cccc5c4CN(C4CCC(=O)NC4=O)C5=O)CC3C)c12 (stereo not shown) [Compound 28, 6-Chloro-1-{2-[4-(2-{[2-(2,6-dioxopiperidin-3-yl)-1-oxo-2,3-dihydro-1H-isoindol-4-yl]oxy}acetyl)-2,6-dimethylpiperazin-1-yl]ethyl}-3-{3-[(6-fluoronaphthalen-1-yl)oxy]propyl}-7-(1,3,5-trimethyl-1H-pyrazol-4-yl)-1H-indole-2-carboxylic acid]	< 100	< 316	> 10000
CNc1cc(OCC(=O)N2CCN(CCn3c(C(=O)O)c(CCCOc4cccc5cc(F)ccc45)c4ccc(Cl)c(-c5c(C)nn(C)c5C)c43)CC2)c2c(c1)C(=O)N(C1CCC(=O)NC1=O)C2 (stereo not shown) [Compound 12, 6-Chloro-1-(2-(4-(2-((2-(2,6-dioxopiperidin-3-yl)-6-(methylamino)-1-oxoisoindolin-4-yl)oxy)acetyl)piperazin-1-yl)ethyl)-3-(3-((6-fluoronaphthalen-1-yl)oxy)propyl)-7-(1,3,5-trimethyl-1H-pyrazol-4-yl)-1H-indole-2-carboxylic acid]	< 316	< 100	> 31600
Cc1nn(C)c(C)c1-c1c(Cl)ccc2c(CCCOc3cccc4cc(F)ccc34)c(C(=O)O)n(CCN3CCN(C(=O)COc4ccc5c6c(cccc46)C(=O)N5C4CCC(=O)NC4=O)CC3)c12 (stereo not shown) [Compound 21, 6-Chloro-1-(2-(4-(2-((1-(2,6-dioxopiperidin-3-yl)-2-oxo-1,2-dihydrobenzo[cd]indol-6-yl)oxy)acetyl)piperazin-1-yl)ethyl)-3-(3-((6-fluoronaphthalen-1-yl)oxy)propyl)-7-(1,3,5-trimethyl-1H-pyrazol-4-yl)-1H-indole-2-carboxylic acid]	< 31.6	< 316	> 10000
Cc1nn(C)c(C)c1-c1c(Cl)ccc2c(CCCOc3cccc4cc(F)ccc34)c(C(=O)O)n(CCN3CCN(C(=O)COc4c(N(C)C)ccc5c4CN(C4CCC(=O)NC4=O)C5=O)CC3)c12 (stereo not shown) [Compound 10, 6-Chloro-1-(2-(4-(2-((5-(dimethylamino)-2-(2,6-dioxopiperidin-3-yl)-1-oxoisoindolin-4-yl)oxy)acetyl)piperazin-1-yl)ethyl)-3-(3-((6-fluoronaphthalen-1-yl)oxy)propyl)-7-(1,3,5-trimethyl-1H-pyrazol-4-yl)-1H-indole-2-carboxylic acid]	< 316	< 316	> 10000
Cc1nc2ccc(C(=O)NCC(=O)N3CCN(CCn4c(C(=O)O)c(CCCOc5cccc6cc(F)ccc56)c5ccc(Cl)c(-c6c(C)nn(C)c6C)c54)CC3)cc2cc1C1CCC(=O)NC1=O (stereo not shown) [Compound 5, 6-Chloro-1-{2-[4-(2-{[3-(2,6-dioxopiperidin-3-yl)-2-methylquinolin-6-yl]formamido}acetyl)piperazin-1-yl]ethyl}-3-{3-[(6-fluoronaphthalen-1-yl)oxy]propyl}-7-(1,3,5-trimethyl-1H-pyrazol-4-yl)-1H-indole-2-carboxylic acid]	< 100		> 10000
Cc1nc2c(NCC(=O)N3CCN(CCn4c(C(=O)O)c(CCCOc5cccc6cc(F)ccc56)c5ccc(Cl)c(-c6c(C)nn(C)c6C)c54)CC3)cccc2cc1N1CCC(=O)NC1=O [Compound 146, 6-Chloro-1-(2-(4-((3-(2,4-dioxotetrahydropyrimidin-1(2H)-yl)-2-methylquinolin-8-yl)glycyl)piperazin-1-yl)ethyl)-3-(3-((6-fluoronaphthalen-1-yl)oxy)propyl)-7-(1,3,5-trimethyl-1H-pyrazol-4-yl)-1H-indole-2-carboxylic acid]	< 31.6	< 100	
Cc1cc(OCCCc2c(C(=O)O)n(CCN3CCN(CC(=O)NCc4ccc5c(c4)CN(C4CCC(=O)NC4=O)C5=O)CC3)c3c(-c4c(C)nn(C)c4C)c(Cl)ccc23)cc(C)c1Cl (stereo not shown) [Compound 27, 6-Chloro-3-[3-(4-chloro-3,5-dimethylphenoxy)propyl]-1-(2-{4-[({[2-(2,6-dioxopiperidin-3-yl)-1-oxo-2,3-dihydro-1H-isoindol-5-yl]methyl}carbamoyl)methyl]piperazin-1-yl}ethyl)-7-(1,3,5-trimethyl-1H-pyrazol-4-yl)-1H-indole-2-carboxylic acid]	< 100		
CCc1c(OCC(=O)N2CCN(CCn3c(C(=O)O)c(CCCOc4cccc5cc(F)ccc45)c4ccc(Cl)c(-c5c(C)nn(C)c5C)c43)CC2)cccc1C(=O)NC1CCC(=O)NC1=O (stereo not shown) [Compound 24, 6-Chloro-1-{2-[4-(2-{3-[(2,6-dioxopiperidin-3-yl)carbamoyl]-2-ethylphenoxy}acetyl)piperazin-1-yl]ethyl}-3-{3-[(6-fluoronaphthalen-1-yl)oxy]propyl}-7-(1,3,5-trimethyl-1H-pyrazol-4-yl)-1H-indole-2-carboxylic acid]			> 10000
CCc1cc(OCC(=O)N2CCN(CCn3c(C(=O)O)c(CCCOc4cccc5cc(F)ccc45)c4ccc(Cl)c(-c5c(C)nn(C)c5C)c43)CC2)ccc1C(=O)NC1CCC(=O)NC1=O (stereo not shown) [Compound 25, 6-Chloro-1-(2-(4-(2-(4-((2,6-dioxopiperidin-3-yl)carbamoyl)-3-ethylphenoxy)acetyl)piperazin-1-yl)ethyl)-3-(3-((6-fluoronaphthalen-1-yl)oxy)propyl)-7-(1,3,5-trimethyl-1H-pyrazol-4-yl)-1H-indole-2-carboxylic acid]			> 3160
Cc1nn(C)c(C)c1-c1c(Cl)ccc2c(CCCOc3cccc4cc(F)ccc34)c(C(=O)O)n(CCN3CCN(CC(=O)Nc4cccc5c4CN(C4CCC(=O)NC4=O)C5=O)CC3)c12 (stereo not shown) [Compound 29, 6-Chloro-1-{2-[4-({[2-(2,6-dioxopiperidin-3-yl)-1-oxo-2,3-dihydro-1H-isoindol-4-yl]carbamoyl}methyl)piperazin-1-yl]ethyl}-3-{3-[(6-fluoronaphthalen-1-yl)oxy]propyl}-7-(1,3,5-trimethyl-1H-pyrazol-4-yl)-1H-indole-2-carboxylic acid]	< 100		> 10000
Cc1nn(C)c(C)c1-c1c(Cl)ccc2c(CCCOc3cccc4cc(F)ccc34)c(C(=O)O)n(CCN3CCN(CC(=O)NCc4ccc5c(c4)CN(C4CCC(=O)NC4=O)C5=O)CC3)c12 (stereo not shown) [Compound 26, 6-Chloro-1-(2-{4-[({[2-(2,6-dioxopiperidin-3-yl)-1-oxo-2,3-dihydro-1H-isoindol-5-yl]methyl}carbamoyl)methyl]piperazin-1-yl}ethyl)-3-{3-[(6-fluoronaphthalen-1-yl)oxy]propyl}-7-(1,3,5-trimethyl-1H-pyrazol-4-yl)-1H-indole-2-carboxylic acid]	< 100		> 31600
Cc1nn(C)c(C)c1-c1c(Cl)ccc2c(CCCOc3cccc4cc(F)ccc34)c(C(=O)O)n(CCN3CCN(C(=O)COc4cc(N(C)C)cc5c4CN(C4CCC(=O)NC4=O)C5=O)CC3)c12 (stereo not shown) [Compound 13, 6-Chloro-1-{2-[4-(2-{[6-(dimethylamino)-2-(2,6-dioxopiperidin-3-yl)-1-oxo-2,3-dihydro-1H-isoindol-4-yl]oxy}acetyl)piperazin-1-yl]ethyl}-3-{3-[(6-fluoronaphthalen-1-yl)oxy]propyl}-7-(1,3,5-trimethyl-1H-pyrazol-4-yl)-1H-indole-2-carboxylic acid]	< 316		> 10000

Source: patent US20260248927A1, “TARGETED PROTEIN DEGRADATION USING BIFUNCTIONAL COMPOUNDS THAT BIND UBIQUITIN LIGASE AND TARGET MCL-1 PROTEIN” (Captor Therapeutics S.A., priority 2022, published 2026)
